Assay results: the SangsterLogP compilation

Assay: method code SF-AS, from DOI: 10.1098/rspb.1976.0034, PMID: 5728
Details: pH 4.5
For `CCOC(=O)c1ccc(S(N)(=O)=O)cc1`, the logD was 1.17.
`CCc1ccc(S(N)(=O)=O)cc1` gave a logD of 1.31.
In the case of `CCCCCNC(=O)c1ccc(S(N)(=O)=O)cc1`, the logD is reported as 1.51.
`CCCNC(=O)c1ccc(S(N)(=O)=O)cc1` showed a logD of 0.51.
`CCCCNC(=O)c1ccc(S(N)(=O)=O)cc1` showed a logD of 1.05.
For `CNC(=O)c1ccc(S(N)(=O)=O)cc1`, the logD was -0.31.
With `CCNC(=O)c1ccc(S(N)(=O)=O)cc1` the logD was 0.03.
With `CCCCc1ccc(S(N)(=O)=O)cc1` the logD was 2.45.
`CCCCCOC(=O)c1ccc(S(N)(=O)=O)cc1` showed a logD of 2.71.
With `CCCCOC(=O)c1ccc(S(N)(=O)=O)cc1` the logD was 2.34.
Work on `CCCc1ccc(S(N)(=O)=O)cc1` yielded a logD of 1.64.
`CCCOC(=O)c1ccc(S(N)(=O)=O)cc1` showed a logD of 1.75.
`CCCCCCNC(=O)c1ccc(S(N)(=O)=O)cc1` showed a logD of 2.05.
